PubChem BioAssay (NCI)
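Interpolation was linear, between the two tested concentrations surrounding the appropriate level; five concentrations were tested over 48 hours in 96-well plates. GI50: concentration for 50% inhibition of growth. TGI denotes the concentration required for complete inhibition of growth.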

Legend:
Test in all cases: NCI-60 cell line screen, 48 h
[1] = test system: COLO 205 colon
[2] = test system: K-562 leukemia
[3] = test system: MALME-3M melanoma
[4] = test system: MOLT-4 leukemia
[5] = test system: NCI-H226 lung
[6] = test system: NCI-H460 lung
[7] = test system: OVCAR-4 ovarian
[8] = test system: RPMI-8226 leukemia
[9] = test system: SNB-19 CNS
[10] = test system: UACC-257 melanoma

SMILES	GI50 [1]	TGI [1]	GI50 [2]	TGI [2]	GI50 [3]	TGI [3]	GI50 [4]	TGI [4]	GI50 [5]	TGI [5]	GI50 [6]	TGI [6]	GI50 [7]	TGI [7]	GI50 [8]	TGI [8]	GI50 [9]	TGI [9]	GI50 [10]	TGI [10]
NC(=S)N/N=C/c1cc(-c2cccc(N)c2)ccn1	3.41 µM	> 100 µM	0.541 µM	> 100 µM	1.31 µM	24 µM	0.588 µM	> 100 µM	1.73 µM	8.18 µM	1.07 µM	7.27 µM	2.66 µM	> 100 µM	0.446 µM	28.7 µM	4.24 µM	> 100 µM	2.15 µM	> 28.6 µM
CC1C(=O)OC2CC[N+]3([O-])CC=C(COC(=O)C(C)(O)C1(C)O)C23 (configuration not stated)	–	> 100 µM	–	> 100 µM	–	> 100 µM	–	> 100 µM	–	> 100 µM	–	> 100 µM	–	> 100 µM	–	> 100 µM	–	> 100 µM	–	> 100 µM
N#Cc1ccc(OC(=O)Nc2ccc(Cl)c(Cl)c2)cc1	3.79 µM	11.4 µM	3.4 µM	> 100 µM	3.81 µM	20.6 µM	3.71 µM	27.8 µM	3.8 µM	> 100 µM	2.87 µM	9.34 µM	2.24 µM	17.7 µM	2.43 µM	6.77 µM	3.1 µM	> 100 µM	4.07 µM	23.9 µM
Nc1ccccc1SC1CC(=O)N(c2ccc(Cl)c(Cl)c2)C1=O (configuration not stated)	53.1 µM	> 100 µM	15 µM	> 100 µM	15.6 µM	> 100 µM	7.7 µM	> 100 µM	14.6 µM	64.4 µM	32 µM	> 100 µM	19.2 µM	> 100 µM	10.6 µM	> 100 µM	31.6 µM	> 100 µM	31.8 µM	> 100 µM
N.N.NCCCCCCCCCN.O=C([O-])CC(=O)[O-].O=C([O-])CC(=O)[O-].[Pt+4].[Pt+4]	> 100 µM	> 100 µM	> 100 µM	> 100 µM	28.9 µM	73.3 µM	> 100 µM	> 100 µM	> 100 µM	> 100 µM	25.8 µM	> 100 µM	> 100 µM	> 100 µM	> 100 µM	> 100 µM	> 100 µM	> 100 µM	> 100 µM	> 100 µM
Cc1nn(C(=O)c2ccc(Cl)cc2)c2c1C(c1ccc(O)cc1)SC(N)=N2 (configuration not stated)	–	> 10 µM	–	> 10 µM	–	> 10 µM	–	> 10 µM	–	> 10 µM	–	> 10 µM	–	> 10 µM	–	> 10 µM	–	> 10 µM	–	> 10 µM
COC(C(=O)[C@@H](O)[C@@H](C)O)[C@@H]1Cc2cc3cc(O[C@H]4C[C@@H](O[C@H]5C[C@@H](O)[C@H](O)C(C)O5)[C@H](O)C(C)O4)c(C)c(O)c3c(O)c2C(=O)[C@H]1O[C@H]1C[C@@H](O[C@H]2C[C@@H](O[C@H]3C[C@@H](O)[C@H](OC)C(C)O3)[C@@H](O)C(C)O2)[C@H](O)C(C)O1 (some centres not stated)	0.0145 µM	0.0521 µM	0.0224 µM	> 33.3 µM	0.011 µM	0.088 µM	0.0231 µM	0.219 µM	0.0209 µM	> 33.3 µM	0.0132 µM	> 33.3 µM	0.049 µM	> 26.5 µM	0.0141 µM	7.13 µM	–	> 33.3 µM	0.013 µM	0.101 µM
O=C(N/N=C/c1c(Cl)cccc1Cl)c1ccc(C(F)(F)F)nc1Nc1cccc(C(F)(F)F)c1	0.67 µM	2.59 µM	0.491 µM	–	2.17 µM	9.23 µM	0.394 µM	7.7 µM	1.53 µM	6.74 µM	0.419 µM	6.13 µM	0.466 µM	> 100 µM	0.375 µM	10.5 µM	1.55 µM	> 100 µM	1.02 µM	> 100 µM
CCOC(CN(C)C(=S)Nc1cccc2ccccc12)OCC	–	> 10 µM	–	> 10 µM	–	> 10 µM	–	> 10 µM	–	> 10 µM	–	> 10 µM	–	> 10 µM	–	> 10 µM	–	> 10 µM	–	> 10 µM
O=C(CSC(c1ccccc1)c1ccccc1)N/N=C/c1ccco1	20.3 µM	52 µM	2.16 µM	8.74 µM	1.53 µM	2.94 µM	1.64 µM	4.48 µM	3 µM	17.1 µM	2.16 µM	12.8 µM	1.73 µM	6.49 µM	1.94 µM	4.45 µM	36 µM	> 100 µM	–	0.935 µM
COc1ccc2c(Oc3ccc(NC(=O)c4c(C)n(CC(C)(C)O)n(-c5ccccc5)c4=O)nc3)ccnc2c1	> 73.4 µM	> 100 µM	2.77 µM	20 µM	9.06 µM	51.1 µM	9.07 µM	> 100 µM	16.2 µM	> 78 µM	13.6 µM	> 100 µM	10.7 µM	> 90 µM	10.7 µM	> 79.3 µM	46.4 µM	> 100 µM	16.6 µM	> 100 µM
